Laboratory results as given in patent US20160250213A1, “FORMULATIONS OF AZAINDOLE COMPOUNDS” (priority 2013, published 2016).
Like-named read-outs stand apart in the source and are kept apart here. Marks after values point to notes of the source that are not given here.

Experiments:
A/Puerto Rico/8/34 = format: cell-based, influenza A virus
[1] = ambient temperature
[2] = system: Influenza A/Victoria/3/75 (H3N2) virus; format: in vivo, BALB/c mice; settings: 10 mg/kg p.o. twice a day for 10 days starting 2 hours prior to virus exposure
influenza A = system: influenza A; set-up: species or system mice; settings: mouse, in vivo
influenza A virus = format: in vivo, mice
[3] = system: Influenza A/California/04/2009 (pndH1N1) virus; format: in vivo, BALB/c mice; settings: 10 mg/kg p.o. twice a day for 10 days starting 2 hours prior to virus exposure

SMILES: CC(=O)N[C@H]1[C@H]([C@H](O)[C@H](O)CO)OC(C(=O)O)=C[C@@H]1N=C(N)N [Zanamivir]
- C.I. (combination index) values at the 50% effect level (A/Puerto Rico/8/34): 0.64
- Synergy Volume, 95% Confidence (A/Puerto Rico/8/34): 268

SMILES: O=C(O)[C@H]1C2CCC(CC2)C1Nc1nc(-c2c[nH]c3ncc(F)cc23)ncc1F (stereo partly drawn) [amorphous compound (1)]
- Resulting Form ([1]; solvent 1,1,2-Trichloroethane): Amorphous
- Resulting Form ([1]; solvent 1,2-Dichloroethane): Amorphous
- Resulting Form ([1]; solvent 1,2-Dimethoxyethane): Amorphous
- Resulting Form ([1]; solvent 1,4-Dioxane): Solvate (1:1)
- Resulting Form ([1]; solvent 1-Butanol): Solvate (1:1)
- Resulting Form ([1]; solvent 1-Pentanol): Solvate(1:1)
- Resulting Form ([1]; solvent 1-Propanol): No signal
- Resulting Form ([1]; solvent 2-Butanol): Solvate(1:1)
- Resulting Form ([1]; solvent 2-Ethoxyethanol): No signal
- Resulting Form ([1]; solvent 2-Methoxyethanol): No signal
- Resulting Form ([1]; solvent 2-Methy-1-propanol): Solvate(1:1)
- Resulting Form ([1]; solvent 2-Propanol): Solvate(1:1)
- Resulting Form ([1]; solvent 3-Methyl-1-butanol): Solvate
- Resulting Form ([1]; solvent Acetone): Solvate
- Resulting Form ([1]; solvent Acetonitrile): Amorphous
- Resulting Form ([1]; solvent Anisole): Amorphous
- Resulting Form ([1]; solvent Butyl acetate): Amorphous
- Resulting Form ([1]; solvent Chlorobenzene): Amorphous
- Resulting Form ([1]; solvent Chloroform): Amorphous
- Resulting Form ([1]; solvent Cumene): Amorphous
- Resulting Form ([1]; solvent Cyclohexane): Amorphous
- Resulting Form ([1]; solvent Dichloromethane): Amorphous
- Resulting Form ([1]; solvent Dimethylsulfoxide): No signal
- Resulting Form ([1]; solvent Ethyl acetate): Amorphous
- Resulting Form ([1]; solvent Ethyl ether): Amorphous
- Resulting Form ([1]; solvent Ethyl formate): Solvate(1:1)
- Resulting Form ([1]; solvent Ethylene glycol): Solvate
- Resulting Form ([1]; solvent Formamide): Amorphous
- Resulting Form ([1]; solvent Formic acid): No signal
- Resulting Form ([1]; solvent Heptane): Solvate
- Resulting Form ([1]; solvent Hexane): Amorphous
- Resulting Form ([1]; solvent Isobutyl acetate): Amorphous
- Resulting Form ([1]; solvent Isopropyl acetate): Amorphous
- Resulting Form ([1]; solvent Methanol): Solvate
- Resulting Form ([1]; solvent Methyl acetate): Solvate
- Resulting Form ([1]; solvent Methyl tetrahydrofuran): Solvate(1:1)
- Resulting Form ([1]; solvent Methylbutyl ketone): Amorphous
- Resulting Form ([1]; solvent Methylcyclohexane): Amorphous
- Resulting Form ([1]; solvent Methylethyl ketone): Solvate(1:1)
- Resulting Form ([1]; solvent N,N-Dimethylacetamide): Solvate
- Resulting Form ([1]; solvent N,N-Dimethylformamide): No signal
- Resulting Form ([1]; solvent N-Methylpyrrolidinone): No signal
- Resulting Form ([1]; solvent Nitromethane): Amorphous
- Resulting Form ([1]; solvent Pentane): Amorphous
- Resulting Form ([1]; solvent Propyl acetate): Amorphous
- Resulting Form ([1]; solvent Tetrahydrofuran): Solvate(1:1)
- Resulting Form ([1]; solvent Tetralin): Amorphous
- Resulting Form ([1]; solvent Toluene): Amorphous
- Resulting Form ([1]; solvent Water): Amorphous
- Resulting Form ([1]; solvent acetic acid): Solvate
- Resulting Form ([1]; solvent t-Butylmethylether): Amorphous
- Resulting Form ([1]; solvent xylene): Amorphous

SMILES: NC(=O)c1nc(F)c[nH]c1=O [favipiravir]
- C.I. (combination index) values at the 50% effect level (A/Puerto Rico/8/34): 0.89
- Synergy Volume, 95% Confidence (A/Puerto Rico/8/34): 317

SMILES: CCC(CC)O[C@@H]1C=C(C(=O)O)C[C@H](N)[C@H]1NC(C)=O [oseltamivir carboxylate]
- Synergy Volume, 95% Confidence (A/Puerto Rico/8/34; Bliss Independence (Macsynergy), in combination with Compound (1)): 312

SMILES: CCOC(=O)C1=C[C@@H](OC(CC)CC)[C@H](NC(C)=O)[C@@H](N)C1 [Oseltamivir, reference compound]
- C.I. (combination index) values at the 50% effect level (A/Puerto Rico/8/34): 0.58
- MDD ± SD (mean day of death of mice that died on or before day 21) [2]: 7.0
- Mean Lung Parameters (Day 6): Score (hemorrhage, 0 to 4) [2]: 1.7 ± 1.1
- Mean Lung Parameters (Day 6): Virus Titer [2]: 7.0 ± 0.3 Log10 CCID50/g
- Mean Lung Parameters (Day 6): Weight [2]: 218 ± 24 mg
- Survivors/Total [2]: 9/10***
- Log10 Reduction vs. Vehicle (influenza A): −0.15 Log10
- Lung Viral Titer (influenza A; 10 mg/kg): 6.05 Log10 TCID50
- dosing initiation post infection up to which complete protection is provided (influenza A virus; 10 mg/kg BID): ≤ 24 h
- survival (influenza A virus; 10 mg/kg BID, same experiment (prophylactic)): survived
- survival (influenza A virus; mouse, in vivo): survived
- Mean Lung Parameters (Day 6): Score (hemorrhage, 0 to 4) [3]: 1.0
- Mean Lung Parameters (Day 6): Virus Titer [3]: 7.9 Log10 CCID50/g
- Mean Lung Parameters (Day 6): Weight [3]: 178 mg
- Survivors/Total [3]: 10/10***
